Reference: ChEMBL document CHEMBL5053490, “Fusaricide is a Novel Iron Chelator that Induces Apoptosis through Activating Caspase-3” (J Nat Prod, 2021)
Active and inactive are the calls of the source. No cut-off for these calls is given here.

Legend:
NCI-H460 [1] = assay: Cytotoxicity against human NCI-H460 cells assessed as reduction in cell viability incubated for 24 hrs by CCK8 assay; type: functional, cell-based; details: NCI-H460, 24 h
NCI-H460 [2] = assay: Induction of apoptosis in human NCI-H460 cells assessed as necrotic cells at 10 uM incubated for 12 hrs by AnnexinV-FITC/propidium iodide staining based flow cytometry (reference value: 1.28%); type: functional
NCI-H460 [3] = assay: Induction of apoptosis in human NCI-H460 cells assessed as late apoptotic cells at 10 uM incubated for 48 hrs by AnnexinV-FITC/propidium iodide staining based flow cytometry (reference value: 7.54%); type: functional
NCI-H460 [4] = assay: Induction of apoptosis in human NCI-H460 cells assessed as early apoptotic cells at 10 uM incubated for 24 hrs by AnnexinV-FITC/propidium iodide staining based flow cytometry (reference value: 0.74%); type: functional
NCI-H460 [5] = assay: Effect on labile iron pool in human NCI-H460 cells assessed as […] at 10 uM by calcein-AM staining based flow cytometry analysis relative to control; type: functional, cell-based
NCI-H460 [6] = assay: Cytotoxicity against human NCI-H460 cells assessed as cell viability rescue at 10 uM incubated for 24 hrs in presence of Fecl3 by CCK8 assay; type: functional, cell-based
NCI-H460 [7] = assay: Induction of apoptosis in human NCI-H460 cells assessed as viable cells at 10 uM incubated for 24 hrs in presence of FeCl3 by AnnexinV-FITC/propidium iodide staining based flow cytometry (reference value: 89.5%); type: functional; details: read-out: Activity
NCI-H460 [8] = assay: Induction of morphological changes in human NCI-H460 cells assessed as roughness of cell membrane at 10 uM measured after 24 hrs by Hoechst 33342 staining based assay; type: functional
NCI-H460 [9] = assay: Induction of apoptosis in human NCI-H460 cells assessed as increase in Caspase 3 activity at 10 uM measured by Western blot analysis; type: functional, cell-based; details: time <= 48.0 hrs, TDE = time-dependent effect
NCI-H1299 [10] = assay: Reversal of cell death in human NCI-H1299 cells at up to 40 uM measured after 24 hrs by in presence of FeCl3; type: functional, cell-based
NCI-H460 [11] = assay: Induction of apoptosis in human NCI-H460 cells assessed as necrotic cells at 10 uM incubated for 24 hrs by AnnexinV-FITC/propidium iodide staining based flow cytometry (reference value: 1.28%); type: functional
NCI-H1299 [12] = assay: Cytotoxicity against human NCI-H1299 cells assessed as cell viability rescue at 10 uM incubated for 24 hrs in presence of Fecl3 by CCK8 assay; type: functional, cell-based
NCI-H460 [13] = assay: Induction of apoptosis in human NCI-H460 cells assessed as early apoptotic cells at 10 uM incubated for 48 hrs by AnnexinV-FITC/propidium iodide staining based flow cytometry (reference value: 0.74%); type: functional
NCI-H460 [14] = assay: Induction of apoptosis in human NCI-H460 cells assessed as late apoptotic cells at 10 uM incubated for 36 hrs by AnnexinV-FITC/propidium iodide staining based flow cytometry (reference value: 7.54%); type: functional
NCI-H460 [15] = assay: Induction of morphological changes in human NCI-H460 cells assessed as chromatin condensation at 10 uM measured after 24 hrs by Hoechst 33342 staining based assay; type: functional, cell-based
NCI-H460 [16] = assay: Downregulation of FTH level in human NCI-H460 cells at 10 uM by Western blot analysis; type: functional, cell-based
NCI-H460 [17] = assay: Induction of apoptosis in human NCI-H460 cells assessed as viable cells at 10 uM incubated for 12 hrs by AnnexinV-FITC/propidium iodide staining based flow cytometry (reference value: 90.4%); type: functional; details: read-out: Activity
MRC5 = assay: Cytotoxicity against human MRC5 cells up to 100 uM assessed as reduction in cell viability incubated for 48 hrs by CCK8 assay; type: cell-based; details: mrc5, 48 h
NCI-H226 [18] = assay: Reversal of cell death in human NCI-H226 cells at up to 40 uM measured after 24 hrs by in presence of FeCl3; type: functional, cell-based
NCI-H460 [19] = assay: Induction of cell cycle arrest in human NCI-H460 cells assessed as increase in activated gammaH2AX expression at 10 uM after 24 hrs by Western blot analysis; type: functional, cell-based
NCI-H460 [20] = assay: Reversal of cell death in human NCI-H460 cells at up to 40 uM measured after 24 hrs by in presence of FeCl3; type: functional, cell-based
NCI-H460 [21] = assay: Induction of apoptosis in human NCI-H460 cells assessed as late apoptotic cells at 10 uM incubated for 24 hrs by AnnexinV-FITC/propidium iodide staining based flow cytometry (reference value: 7.54%); type: functional
NCI-H460 [22] = assay: Induction of apoptosis in human NCI-H460 cells assessed as necrotic cells at 10 uM incubated for 24 hrs in presence of FeCl3 by AnnexinV-FITC/propidium iodide staining based flow cytometry (reference value: 2.4%); type: functional
NCI-H460 [23] = assay: Induction of apoptosis in human NCI-H460 cells assessed as early apoptotic cells at 10 uM incubated for 24 hrs in presence of FeCl3 by AnnexinV-FITC/propidium iodide staining based flow cytometry (reference value: 1.69%); type: functional
NCI-H460 [24] = assay: Induction of cell cycle arrest in human NCI-H460 cells assessed as accumulation at sub G2/M phase at 10 uM after 24 hrs by flow cytometric analysis (reference value: 9.8%); type: functional
NCI-H460 [25] = assay: Induction of cell cycle arrest in human NCI-H460 cells assessed as accumulation at sub G0/G1 phase at 10 uM after 24 hrs by flow cytometric analysis (reference value: 64.5%); type: functional
NCI-H460 [26] = assay: Induction of apoptosis in human NCI-H460 cells assessed as viable cells at 10 uM incubated for 48 hrs by AnnexinV-FITC/propidium iodide staining based flow cytometry (reference value: 90.4%); type: functional; details: read-out: Activity
NCI-H460 [27] = assay: Induction of apoptosis in human NCI-H460 cells assessed as necrotic cells at 10 uM incubated for 36 hrs by AnnexinV-FITC/propidium iodide staining based flow cytometry (reference value: 1.28%); type: functional
NCI-H460 [28] = assay: Induction of apoptosis in human NCI-H460 cells assessed as decrease in PARP measured upto 48 hrs by Western blot analysis; type: functional, cell-based; details: TDE = time-dependent effect
NCI-H460 [29] = assay: Induction of cell cycle arrest in human NCI-H460 cells assessed as accumulation at sub S phase at 10 uM after 12 hrs by flow cytometric analysis (reference value: 25.7%); type: functional
NCI-H460 [30] = assay: Cytotoxicity against human NCI-H460 cells assessed as reduction in cell viability incubated for 48 hrs by CCK8 assay; type: functional, cell-based; details: NCI-H460, 48 h
NCI-H460 [31] = assay: Induction of cell cycle arrest in human NCI-H460 cells assessed as accumulation at sub G2/M phase at 10 uM after 12 hrs by flow cytometric analysis (reference value: 9.8%); type: functional
NCI-H460 [32] = assay: Cytotoxicity against human NCI-H460 cells assessed as reduction in cell viability at 5 uM incubated for 48 hrs by CCK8 assay; type: functional, cell-based
NCI-H460 [33] = assay: Induction of cell cycle arrest in human NCI-H460 cells assessed as accumulation at […] at 10 uM after 24 hrs by flow cytometric analysis (reference value: 25.7%); type: functional
HEK-293T = assay: Cytotoxicity against human HEK293T cells up to 100 uM assessed as reduction in cell viability incubated for 48 hrs by CCK8 assay; type: cell-based
NCI-H460 [34] = assay: Induction of apoptosis in human NCI-H460 cells assessed as increase in Bax at 10 uM measured by Western blot analysis; type: functional, cell-based
NCI-H460 [35] = assay: Induction of apoptosis in human NCI-H460 cells assessed as early apoptotic cells at 10 uM incubated for 12 hrs by AnnexinV-FITC/propidium iodide staining based flow cytometry (reference value: 0.74%); type: functional
NCI-H460 [36] = assay: Induction of apoptosis in human NCI-H460 cells assessed as late apoptotic cells at 10 uM incubated for 12 hrs by AnnexinV-FITC/propidium iodide staining based flow cytometry (reference value: 7.54%); type: functional
NCI-H460 [37] = assay: Induction of apoptosis in human NCI-H460 cells assessed as late apoptotic cells at 10 uM incubated for 24 hrs in presence of FeCl3 by AnnexinV-FITC/propidium iodide staining based flow cytometry (reference value: 6.09%); type: functional
NCI-H460 [38] = assay: Induction of apoptosis in human NCI-H460 cells assessed as necrotic cells at 10 uM incubated for 48 hrs by AnnexinV-FITC/propidium iodide staining based flow cytometry (reference value: 1.28%); type: functional
NCI-H460 [39] = assay: Upregulation of TfR1 level in human NCI-H460 cells at 10 uM by Western blot analysis; type: functional, cell-based
NCI-H460 [40] = assay: Induction of cell cycle arrest in human NCI-H460 cells assessed as decrease in cyclin D1 expression at 10 uM after 24 hrs by Western blot analysis; type: functional, cell-based
NCI-H460 [41] = assay: Induction of apoptosis in human NCI-H460 cells assessed as viable cells at 10 uM incubated for 36 hrs by AnnexinV-FITC/propidium iodide staining based flow cytometry (reference value: 90.4%); type: functional; details: read-out: Activity
NCI-H460 [42] = assay: Induction of apoptosis in human NCI-H460 cells assessed as increase in cleaved PARP measured upto 48 hrs by Western blot analysis; type: functional, cell-based; details: TDE = time-dependent effect
NCI-H460 [43] = assay: Induction of apoptosis in human NCI-H460 cells assessed as early apoptotic cells at 10 uM incubated for 36 hrs by AnnexinV-FITC/propidium iodide staining based flow cytometry (reference value: 0.74%); type: functional
NCI-H460 [44] = assay: Induction of cell cycle arrest in human NCI-H460 cells assessed as increase in p-53 expression at 10 uM after 24 hrs by Western blot analysis; type: functional, cell-based
NCI-H460 [45] = assay: Induction of apoptosis in human NCI-H460 cells assessed as viable cells at 10 uM incubated for 24 hrs by AnnexinV-FITC/propidium iodide staining based flow cytometry (reference value: 90.4%); type: functional; details: read-out: Activity
NCI-H226 [46] = assay: Cytotoxicity against human NCI-H226 cells assessed as cell viability rescue at 10 uM incubated for 24 hrs in presence of Fecl3 by CCK8 assay; type: functional, cell-based
NCI-H460 [47] = assay: Induction of cell cycle arrest in human NCI-H460 cells assessed as accumulation at sub G0/G1 phase at 10 uM after 12 hrs by flow cytometric analysis (reference value: 64.5%); type: functional

Compound: CC[C@H]1Oc2ccn(O)c(=O)c2[C@H]2[C@H](C)C[C@H](C)C[C@]12C
- IC50 (NCI-H460 [1]): 4.94 µM
- Activity (NCI-H460 [2]): 1.7%
- Activity (NCI-H460 [3]): 57.9%
- Activity (NCI-H460 [4]): 6.27%
- Activity (NCI-H460 [5]): Active
- Activity (NCI-H460 [6]): inactive
- viability at 10 µM (NCI-H460 [7]): 93.8%
- Activity (NCI-H460 [8]): Active
- Activity (NCI-H460 [9]): Tde
- Activity (NCI-H1299 [10]): Active
- Activity (NCI-H460 [11]): 2.44%
- Activity (NCI-H1299 [12]): inactive
- Activity (NCI-H460 [13]): 4.51%
- Activity (NCI-H460 [14]): 35.7%
- Activity (NCI-H460 [15]): Active
- Activity (NCI-H460 [16]): Active
- viability at 10 µM (NCI-H460 [17]): 86.3%
- Activity (MRC5): Toxic
- Activity (NCI-H226 [18]): Active
- Activity (NCI-H460 [19]): Active
- Activity (NCI-H460 [20]): Active
- Activity (NCI-H460 [21]): 15.7%
- Activity (NCI-H460 [22]): 1.01%
- Activity (NCI-H460 [23]): 0.75%
- Activity (NCI-H460 [24]): 0.8%
- Activity (NCI-H460 [25]): 73.9%
- viability at 10 µM (NCI-H460 [26]): 34.2%
- Activity (NCI-H460 [27]): 3.92%
- Activity (NCI-H460 [28]): Tde
- Activity (NCI-H460 [29]): 25.9%
- IC50 (NCI-H460 [30]): 1.76 µM
- Activity (NCI-H460 [31]): 2.2%
- Activity (NCI-H460 [32]): Dose-dependent effect
- Activity (NCI-H460 [33]): 26%
- Activity (HEK-293T): Toxic
- Activity (NCI-H460 [34]): Active
- Activity (NCI-H460 [35]): 2.93%
- Activity (NCI-H460 [36]): 9.5%
- Activity (NCI-H460 [37]): 4.43%
- Activity (NCI-H460 [38]): 3.4%
- Activity (NCI-H460 [39]): Active
- Activity (NCI-H460 [40]): Active
- viability at 10 µM (NCI-H460 [41]): 56.1%
- Activity (NCI-H460 [42]): Tde
- Activity (NCI-H460 [43]): 4.29%
- Activity (NCI-H460 [44]): Active
- viability at 10 µM (NCI-H460 [45]): 75.6%
- Activity (NCI-H226 [46]): inactive
- Activity (NCI-H460 [47]): 71.8%

Compound: CC(=O)O[C@H]1C(=O)[C@@]2(C)[C@H]([C@H](OC(=O)c3ccccc3)[C@]3(O)C[C@H](OC(=O)[C@H](O)[C@@H](NC(=O)c4ccccc4)c4ccccc4)C(C)=C1C3(C)C)[C@]1(OC(C)=O)CO[C@@H]1C[C@@H]2O
- Activity (NCI-H460 [6]): inactive
- Activity (NCI-H1299 [12]): inactive
- Activity (NCI-H226 [46]): inactive

Compound: O=C(O)c1ccc(-n2nc(-c3ccccc3O)nc2-c2ccccc2O)cc1 [DEFERASIROX]
- IC50 (NCI-H460 [1]): 98.4 µM
- IC50 (NCI-H460 [30]): 20.4 µM
